Assay results taken from article PMC12040169 (PLOS Biology, 2025).

Test: in vitro
Details: human, hela cells, % viability

| Structure (SMILES) | viability at 28.5 h, 10 µM [%] | viability at 28.5 h, 10 µM (bulk resorufin, single well) [%] |
| --- | --- | --- |
| O=C(CN1CCC2(CC1)CN(CCO)c1ccccc12)Nc1ccc(F)c(Cl)c1 [CBK126761] | 94.6 |  |
| Cn1ccnc1CN1C[C@@H]2CN(C(=O)C3CCCC3)C[C@]2(C(=O)O)C1 [CBK307201] | 102 |  |
| Cc1onc(-c2ccccc2)c1CNC(=O)c1ccco1 [CBK144074] | 90.5 |  |
| NS(=O)(=O)c1ccc(CN2CCCC2=O)cc1 [CBK288420] | 108 |  |
| Cc1ccc2c(CC(=O)N3CCNCC3c3cnn(C)c3)coc2c1C (centres unmarked) [CBK304271C] | 87 |  |
| Cn1ccc(C(=O)NC(Cc2cccs2)c2nccs2)n1 (centres unmarked) [CBK285135] | 91.4 |  |
| c1ccc2c(Sc3nccnc3N3CCCC3)cccc2c1 [CBK089527] | 89.2 |  |
| O=C(NCc1ccc2occc2c1)C1(c2ccccc2)CCCC1 [CBK149525] | 116 |  |
| COc1ccc([N+](=O)[O-])cc1NC(=O)C1C2CCC(C2=C(C)C)C1C(=O)O (centres unmarked) [CBK263686] | 93.2 |  |
| Cc1c(C(=O)N(CC(=O)O)C2CC2)nnn1-c1ccc(Cl)cc1F [CBK304738] | 91.1 |  |
| O=C(O)C1C2C=CC(O2)C1C(=O)Nc1ccc(S(=O)(=O)N2CCc3ccccc32)cc1 (centres unmarked) [CBK268176] | 91.1 |  |
| O=C(CCNS(=O)(=O)c1ccc(Cl)cc1)Nc1ccncc1 [CBK269244] | 99.4 |  |
| Cc1ccc(NC(=O)c2ccccc2NS(=O)(=O)c2cccc(C(=O)O)c2)cc1 [CBK296695] | 122 |  |
| CC(C)C(NC(=O)C1C=CCN1S(C)(=O)=O)c1cccs1 (centres unmarked) [CBK282701] | 82.5 |  |
| O=C(CN1CCC(c2cncc(-c3cccc(C(F)(F)F)c3)n2)CC1)N1CCCC1 [CBK286152] | 94.3 |  |
| O=[N+]([O-])c1cc(S(=O)(=O)Nc2ccc3[nH]ncc3c2)ccc1Cl [CBK062537] | 84.6 |  |
| CC(C)(C)OC(=O)NC1CCN(C(=O)CCC(=O)O)CC1 [CBK286604] | 95.9 |  |
| CC(C)(CN)CN(Cc1ccc(Cl)cc1Cl)C(=O)NCCc1c[nH]c2ccccc12 [CBK000460C] | 89.4 |  |
| CCOC(=O)N/N=C1\CCCCC1CC (centres unmarked) [CBK016112] | 84.7 |  |
| Cc1ccc(C)c(CC(=O)N(C)C2CCN(C3CCOCC3)CC2)c1 [CBK304964] | 87.4 |  |
| CCOC(=O)CCSc1c(CC)c(C)nc2ccccc12 [CBK153457T] | 93.5 |  |
| COc1ccc(OC)c(NC(=O)CSc2nnc(-c3ccc(F)cc3)n2C)c1 [CBK266073] | 92 |  |

| Structure (SMILES) | viability at 28.5 h, 10 µM [%] | viability at 28.5 h, 10 µM (bulk resorufin, single well) [%] |
| --- | --- | --- |
| COCCOc1nccnc1N1CCNCC1 [CBK001903G] | 103 |  |
| COc1cccc(N(CC(=O)Nc2ccccc2Cl)S(=O)(=O)c2ccc(C)cc2)c1 [CBK263791] | 93.4 |  |
| CC(C)(C)c1ccc(NC(=O)C(=O)NCCCn2ccnc2)cc1 [CBK267358] | 108 |  |
| O=C(CCN1C(=O)COc2ccccc21)NCCCN1CCN(c2ccccc2F)CC1 [CBK294469] | 102 |  |
| O=C(Cn1cnnn1)N1CCN(Cc2ccccc2)CC1 [CBK026053] | 85.5 |  |
| COc1ccccc1NC(=O)C1C2NC(=S)NC1(C)Oc1c(OC)cccc12 (centres unmarked) [CBK269013] | 107 |  |
| O=C(Oc1ccc(/C=N/c2ccc(O)c(-c3nc4ccccc4s3)c2)cc1)c1ccccc1Cl [CBK261241] | 89.9 |  |
| CC(=O)N(C)c1nc(-c2ccccc2C)ccc1C(=O)Nc1cc(C)nn1C [CBK106357] | 88.6 |  |
| Cc1cc(/C=C2\SC(=O)N(CC(=O)Nc3ccccc3F)C2=O)c(C)n1-c1cccnc1 [CBK264770] | 95.5 |  |
| Cc1nc(NCCN2CCCC(CO)C2)nc2c1CCCC2 (centres unmarked) [CBK307430] | 82 |  |
| COCCNc1cccc(Cn2c(=O)n(C)c3c2c(=O)nc(OC)n3C)c1 [CBK022052] | 84.3 |  |
| O=c1c2cc(Cl)ccc2sc2ncccc12 [CBK008118] | 97.4 |  |
| Cc1nc2n(/N=C/c3ccc([N+](=O)[O-])cc3)c3ccccc3n2c1C#N [CBK263107] | 88.4 |  |
| CN1CCN(CCC(=O)N2c3ccccc3Sc3ccc(C(F)(F)F)cc32)CC1 [CBK278221C] | 103 |  |
| O=C(Nc1ccccc1-c1ccccc1)c1cc(-c2ccncc2)nc2ccc(Cl)cc12 [CBK267759] | 95 |  |
| CC1=NNC(=O)C1C(c1ccc(Cl)cc1Cl)C1C(=O)NN=C1C (centres unmarked) [CBK067756] | 109 |  |
| O=C(NC1CCCOC1)c1cnn(-c2ccc(F)cc2)c1 (centres unmarked) [CBK283248] | 89.4 |  |
| O=C(c1cscn1)N1CCCc2ccccc21 [CBK200348] | 102 |  |
| O=C1COc2ccccc2C/C=C/CC2(CCCN(C(=O)CN3CSCC3=O)C2)CN1 (centres unmarked) [CBK292035] | 116 |  |
| O=C(O)C(CC1COc2ccccc2O1)C(=O)O (centres unmarked) [CBK276280] | 89.6 |  |
| COc1ccc(C(=O)Nc2cnn(CCCC(=O)O)c2)cc1 [CBK270052] | 89.7 |  |
| COc1ccc(OCc2nc(-c3cccs3)no2)cc1 [CBK269782] | 91.7 |  |

| Structure (SMILES) | viability at 28.5 h, 10 µM [%] | viability at 28.5 h, 10 µM (bulk resorufin, single well) [%] |
| --- | --- | --- |
| O=C(O)c1cccc(Cn2ccc3c(F)cccc32)c1 [CBK003453] | 95.9 |  |
| Cn1cc(N2CCCC(NC(=O)Nc3cccc(C#N)c3)C2)cn1 (centres unmarked) [CBK305179] | 91.3 |  |
| CS(=O)(=O)N1CC2(CCN(CC3COc4ccccc4O3)CC2)c2ccccc21 (centres unmarked) [CBK115461T] | 101 |  |
| CCCS(=O)(=O)N1CCN(Cc2cc(Br)ccc2O)CC1 [CBK264165G] | 102 |  |
| O=C(Nc1cccc(-c2nc3ccccc3s2)c1)c1ccc(S(=O)(=O)N2CCCC2)cc1 [CBK261787] | 96.7 |  |
| O=C(Nc1ccccc1Br)N1CCC2(CC1)OCCO2 [CBK043644] |  | 90.7 |
| Cc1noc(C)c1C(=O)N1CCC(c2ccncc2)CC1 [CBK282334] | 110 |  |
| CSc1ccccc1C(=O)N1CCN(S(=O)(=O)c2sc(C(=O)O)c(C)c2C(=O)O)CC1 [CBK297149] | 90.4 |  |
| CC(C)OC(=O)c1nnn(-c2nonc2N)c1CN1CCCCCC1 [CBK027601] | 94 |  |
| Cc1cccc(-c2ncc(NC(=O)C3CC3)nc2-c2cccnc2)c1 [CBK037134] | 98.9 |  |
| Cc1ccccc1NC(=O)c1ccc(Br)o1 [CBK107152] | 88.2 |  |
| CC(C)(C)c1ccc(NC(=O)N2CCCN(Cc3ccccc3)CC2)cc1 [CBK085876] | 116 |  |
| CCNC(=O)CN1CCN(C(=O)C(C)(C)c2cccc(C#N)c2)CC1 [CBK306141] | 96.4 |  |
| O=C(CCc1ccc(Cl)cc1)NCCn1cncn1 [CBK283184] | 98.6 |  |
| CCCC(=O)Nc1c(F)cc(F)cc1OC1CCNCC1 [CBK045892T] | 91.1 |  |
| COc1ccccc1N1CCN(CCC(=O)Nc2ccccc2F)CC1 [CBK264313] | 106 |  |
| Cc1ccc2nc(-c3ccc(N4C(=O)CC(N5CCC(N6CCCCC6)CC5)C4=O)cc3)sc2c1 (centres unmarked) [CBK265315] | 114 |  |
| O=C(CN(Cc1ccccc1Cl)S(=O)(=O)c1ccc(Cl)cc1)NC1CCCCC1 [CBK264659] | 97.5 |  |
| Cc1ccccc1Nc1nc(N)nc(CN2CCOCC2)n1 [CBK305646] | 87.5 |  |
| CC(Oc1ccc(Cl)cc1Cl)C(=O)Nc1ccc(OCC(=O)O)cc1 (centres unmarked) [CBK266542] | 98.8 |  |
| O=S(=O)(Nc1nc2c(s1)CCCC2)c1ccc(Br)cc1 [CBK097787] | 89.7 |  |
